# Biological target: TNFα (Homo sapiens, UniProt P01375)
# Assay: TNFα Induced HEK Blue Cellular Assay
# Format: cell-based
# Details: HEK Blue TNFα reporter cells, TNFα 100 pg/ml, 24 hrs at 37° C., secreted alkaline phosphatase (QUANTI-Blue) read at 620 nm; read-out: IC50 value
# Outline: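 Reporter cells (10,000/well, DMEM + 10% FBS) with compound (final […] to 0.5 nM) stimulated with 100 pg/ml TNFα, 24 h at 37 °C, 5% CO2. Secreted alkaline phosphatase read at 620 nm; IC50 by 4-parameter logistic fit after background correction against stimulated/unstimulated DMSO controls.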
# Sequence of TNFα (P01375 77-233 limits assumed): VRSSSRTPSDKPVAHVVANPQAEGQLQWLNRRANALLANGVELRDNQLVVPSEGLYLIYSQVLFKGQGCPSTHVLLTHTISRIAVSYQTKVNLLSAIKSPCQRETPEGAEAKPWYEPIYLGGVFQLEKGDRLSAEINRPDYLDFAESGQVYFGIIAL
row,Compound,IC50
1,"[2H]C([2H])([2H])N1C(=O)c2cccc(OC(F)F)c2[C@H]2C[C@@H]1c1nc3ccc(-c4cc(F)c(C(C)P(C)(C)=O)c(F)c4)cc3n12 (single isomer, unassigned) [Example 112, (7R,14R)-1-(difluoromethoxy)-11-(4-((S or R)-1-(dimethylphosphoryl)ethyl)-3,5-difluorophenyl)-6-(methyl-d3)-6,7-dihydro-7,14-methanobenzo[f]benzo[4,5]imidazo[1,2-a][1,4]diazocin-5(14H)-one]",< 100 nM
2,"[2H]C([2H])([2H])N1C(=O)c2cccc(OC(F)F)c2[C@H]2C[C@@H]1c1nc3ccc(-c4ccc(P(C)(C)=O)cc4C(F)F)cc3n12 [Example 102, (7R,14R)-1-(difluoromethoxy)-11-(2-(difluoromethyl)-4-(dimethylphosphoryl)phenyl)-6-(methyl-d3)-6,7-dihydro-7,14-methanobenzo[f]benzo[4,5]imidazo[1,2-a][1,4]diazocin-5(14H)-one]",< 100 nM
3,"CN1C(=O)c2cccc(OC(F)F)c2[C@H]2C[C@@H]1c1nc3ccc(-c4ccc(CP(C)(C)=O)cc4)cc3n12 [Example 33, (1R,11R)-18-(difluoromethoxy)-5-{4-[(dimethylphosphoryl)methyl]phenyl}-12-methyl-2,9,12-triazapentacyclo[9.8.1.0^{2,10}.0^{3,8}.0^{14,19}]icosa-3(8),4,6,9,14(19),15,17-heptaen-13-one]",< 100 nM
4,"[2H]C([2H])([2H])N1C(=O)c2cccc(OC(F)F)c2[C@H]2C[C@@H]1c1nc3cc(F)c(-c4cnc(P(C)(C)=O)cc4C)cc3n12 [Example 89, (7R,14R)-1-(difluoromethoxy)-11-(6-(dimethylphosphoryl)-4-methylpyridin-3-yl)-10-fluoro-6-(methyl-d3)-6,7-dihydro-7,14-methanobenzo[f]benzo[4,5]imidazo[1,2-a][1,4]diazocin-5(14H)-one]",10000 to 30000 nM
5,"CN1C(=O)c2cccc(OC(F)F)c2[C@H]2C[C@@H]1c1nc3ccc(-c4ccc(P(C)(C)=O)cc4)cc3n12 [Example 13, (1R,11R)-18-(difluoromethoxy)-5-[4-(dimethylphosphoryl)phenyl]-12-methyl-2,9,12-triazapentacyclo[9.8.1.0^{2,10}.0^{3,8}.0^{14,19}]icosa-3(8),4,6,9,14(19),15,17-heptaen-13-one]",< 100 nM
6,"[2H]C([2H])([2H])N1C(=O)c2cccc(OC(F)F)c2[C@H]2C[C@@H]1c1nc3ccc(-c4ccc([C@@](C)(O)P(C)(C)=O)cc4)cc3n12 (single isomer, unassigned) [Example 111, (7R,14R)-1-(difluoromethoxy)-11-(4-((R or S)-1-(dimethylphosphoryl)-1-hydroxyethyl)phenyl)-6-(methyl-d3)-6,7-dihydro-7,14-methanobenzo[f]benzo[4,5]imidazo[1,2-a][1,4]diazocin-5(14H)-one]",< 100 nM
7,"CP(C)(=O)c1ccc(-c2ccc3nc4n(c3c2)[C@@H]2C[C@H]4NC(=O)c3cccc(OC(F)F)c32)cn1 [Example 3, (7R,14R)-1-(difluoromethoxy)-11-(6-(dimethylphosphoryl)pyridin-3-yl)-6,7-dihydro-7,14-methanobenzo[f]benzo[4,5]imidazo[1,2-a][1,4]diazocin-5(14H)-one]",100 to 1000 nM
8,"CN1C(=O)c2cccc(OC(F)F)c2[C@H]2C[C@@H]1c1nc3ccc(-c4ccc(P(C)(C)=O)c(F)c4F)cc3n12 [Example 36, (1R,11R)-18-(difluoromethoxy)-5-[4-(dimethylphosphoryl)-2,3-difluorophenyl]-12-methyl-2,9,12-triazapentacyclo[9.8.1.0^{2,10}.0^{3,8}.0^{14,19}]icosa-3(8),4,6,9,14(19),15,17-heptaen-13-one]",< 100 nM
9,"[2H]C([2H])([2H])N1C(=O)c2cccc(OC(F)F)c2[C@H]2C[C@@H]1c1nc3ccc(-c4ccc(CP(C)(C)=O)c(F)c4F)cc3n12 [Example 76, (7R,14R)-1-(difluoromethoxy)-11-(4-((dimethylphosphoryl)methyl)-2,3-difluorophenyl)-6-(methyl-d3)-6,7-dihydro-7,14-methanobenzo[f]benzo[4,5]imidazo[1,2-a][1,4]diazocin-5(14H)-one]",< 100 nM
10,"CN1C(=O)c2cccc(OC(F)F)c2[C@H]2C[C@@H]1c1nc3ccc(-c4ccc(CP(C)(C)=O)cc4F)cc3n12 [Example 80, (7R,14R)-1-(difluoromethoxy)-11-(4-((dimethylphosphoryl)methyl)-2-fluorophenyl)-6-methyl-6,7-dihydro-7,14-methanobenzo[f]benzo[4,5]imidazo[1,2-a][1,4]diazocin-5(14H)-one]",< 100 nM
11,"[2H]C([2H])([2H])N1C(=O)c2cccc(OC(F)F)c2[C@H]2C[C@@H]1c1nc3ccc(-c4cc(F)c(P(C)(C)=O)cc4C)cc3n12 [Example 88, (7R,14R)-1-(difluoromethoxy)-11-(4-(dimethylphosphoryl)-5-fluoro-2-methylphenyl)-6-(methyl-d3)-6,7-dihydro-7,14-methanobenzo[f]benzo[4,5]imidazo[1,2-a][1,4]diazocin-5(14H)-one]",< 100 nM
12,"[2H]C([2H])([2H])N1C(=O)c2cccc(OC(F)F)c2[C@H]2C[C@@H]1c1nc3ccc(-c4ccc(P(C)(C)=O)nc4C)cc3n12 [Example 91, (7R,14R)-1-(difluoromethoxy)-11-(6-(dimethylphosphoryl)-2-methylpyridin-3-yl)-6-(methyl-d3)-6,7-dihydro-7,14-methanobenzo[f]benzo[4,5]imidazo[1,2-a][1,4]diazocin-5(14H)-one]",< 100 nM
13,"[2H]C([2H])([2H])N1C(=O)c2cccc(OC(F)F)c2[C@H]2C[C@@H]1c1nc3cc(F)c(-c4ccc(P(C)(C)=O)cc4F)cc3n12 [Example 61, (7R,14R)-1-(difluoromethoxy)-11-(4-(dimethylphosphoryl)-2-fluorophenyl)-10-fluoro-6-(methyl-d3)-6,7-dihydro-7,14-methanobenzo[f]benzo[4,5]imidazo[1,2-a][1,4]diazocin-5(14H)-one]",< 100 nM
14,"[2H]C([2H])([2H])N1C(=O)c2cccc(OC(F)F)c2[C@H]2C[C@@H]1c1nc3ccc(-c4ccc(P(C)(C)=O)c(F)c4)c(F)c3n12 [Example 139, (7R,14R)-1-(difluoromethoxy)-11-(4-(dimethylphosphoryl)-3-fluorophenyl)-12-fluoro-6-(methyl-d3)-6,7-dihydro-7,14-methanobenzo[f]benzo[4,5]imidazo[1,2-a][1,4]diazocin-5(14H)-one]",< 100 nM
15,"[2H]C([2H])([2H])N1C(=O)c2cccc(OC(F)F)c2[C@H]2C[C@@H]1c1nc3cc(F)c(-c4ccc(P(C)(C)=O)nc4C)cc3n12 [Example 97, (7R,14R)-1-(difluoromethoxy)-11-(6-(dimethylphosphoryl)-2-methylpyridin-3-yl)-10-fluoro-6-(methyl-d3)-6,7-dihydro-7,14-methanobenzo[f]benzo[4,5]imidazo[1,2-a][1,4]diazocin-5(14H)-one]",< 100 nM
16,"[2H]C([2H])([2H])N1C(=O)c2cccc(OC(F)F)c2[C@H]2C[C@@H]1c1nc3ccc(-c4ccc(P(C)(C)=O)cc4)cc3n12 [Example 65, (7R,14R)-1-(difluoromethoxy)-11-(4-(dimethylphosphoryl)phenyl)-6-(methyl-d3)-6,7-dihydro-7,14-methanobenzo[f]benzo[4,5]imidazo[1,2-a][1,4]diazocin-5(14H)-one]",< 100 nM
17,"[2H]C([2H])([2H])N1C(=O)c2cccc(OC(F)F)c2[C@H]2C[C@@H]1c1nc3ccc(-c4cc(F)c(P(C)(C)=O)c(C)n4)cc3n12 [Example 123, (7R,14R)-1-(difluoromethoxy)-11-(5-(dimethylphosphoryl)-4-fluoro-6-methylpyridin-2-yl)-6-(methyl-d3)-6,7-dihydro-7,14-methanobenzo[f]benzo[4,5]imidazo[1,2-a][1,4]diazocin-5(14H)-one]",100 to 1000 nM
18,"CN1C(=O)c2cccc(OC(F)F)c2[C@H]2C[C@@H]1c1nc3ccc(-c4ccc(P5(=O)CCCC5)nc4)cc3n12 [Example 5, (1R,11R)-18-(difluoromethoxy)-12-methyl-5-[6-(1-oxo-1lambda5-phospholan-1-yl)pyridin-3-yl]-2,9,12-triazapentacyclo[9.8.1.0^{2,10}.0^{3,8}.0^{14,19}]icosa-3(8),4,6,9,14(19),15,17-heptaen-13-one]",< 100 nM
19,"CN1C(=O)c2cccc(OC(F)F)c2[C@H]2C[C@@H]1c1nc3ccc(-c4ccc(P(C)(C)=O)nc4)cc3n12 [Example 2, (7R,14R)-1-(difluoromethoxy)-11-(6-(dimethylphosphoryl)pyridin-3-yl)-6-methyl-6,7-dihydro-7,14-methanobenzo[f]benzo[4,5]imidazo[1,2-a][1,4]diazocin-5(14H)-one]",< 100 nM
20,"CN1C(=O)c2cccc(OC(F)F)c2[C@H]2C[C@@H]1c1nc3ccc(-c4ccc(OCCP(C)(C)=O)nc4)cc3n12 [Example 39, (1R,11R)-18-(difluoromethoxy)-5-{6-[2-(dimethylphosphoryl)ethoxy]pyridin-3-yl}-12-methyl-2,9,12-triazapentacyclo[9.8.1.0^{2,10}.0^{3,8}.0^{14,19}]icosa-3(8),4,6,9,14(19),15,17-heptaen-13-one]",< 100 nM
21,"CCN1C(=O)c2cccc(OC(F)F)c2[C@H]2C[C@@H]1c1nc3ccc(-c4ccc(P(C)(C)=O)c(F)c4)cc3n12 [Example 45, (1R,11R)-18-(difluoromethoxy)-5-[4-(dimethylphosphoryl)-3-fluorophenyl]-12-ethyl-2,9,12-triazapentacyclo[9.8.1.0^{2,10}.0^{3,8}.0^{14,19}]icosa-3(8),4,6,9,14(19),15,17-heptaen-13-one]",< 100 nM
22,"[2H]C([2H])([2H])N1C(=O)c2cccc(OC(F)F)c2[C@H]2C[C@@H]1c1nc3ccc(-c4ccc(P(=O)(CC)CC)c(F)c4)cc3n12 [Example 125, (7R,14R)-11-(4-(diethylphosphoryl)-3-fluorophenyl)-1-(difluoromethoxy)-6-(methyl-d3)-6,7-dihydro-7,14-methanobenzo[f]benzo[4,5]imidazo[1,2-a][1,4]diazocin-5(14H)-one]",< 100 nM

# Reference: patent US12384808B2, “Modulators of TNF-α activity” (Forward Therapeutics, Inc., priority 2022, dated 2025)
